Measured values: paper PMC5655360, “Establishment of a novel hepatocyte model that expresses four cytochrome P450 genes stably via mammalian-derived artificial chromosome for pharmacokinetics and toxicity studies” (PLoS ONE, 2017)
Like-named read-outs stand apart in the source and are kept apart here.

How the values were obtained:
CYP3A4 [1] = target: T1, CYP3A4 (Homo sapiens, UniProt P08684)
Method: (§1) Measurement of the activity of all four CYPs was conducted using the P450-Glo™ assay (Promega, Japan), according to the manufacturer’s instructions. Briefly, cells were seeded in a 96-well plate at a density of 1×10^4 cells/well. Twenty-four hours later, test compounds and the luminescent substrate included in the kit were added into the culture media. Following 1 hour of incubation, the detection reagent was added, and the luminescence generated by the metabolic substrate within the culture media was measured using an Infinite F500 plate reader ([…]).
(§2) Curve fitting was performed using the SigmaPlot 13.0 statistical software (Systat Software, IL, USA). […] Data were presented as means ± S.D. Statistical analyses were carried out using unpaired Student’s t test. The level of statistical significance was set at P< 0.05.
(§3) Twenty compounds that are known to inhibit CYPs were used to calculate IC50 values in TC-HepG2 cells, which were then compared to those in primary human hepatocytes.
(§4) Briefly, CYP inhibitors were added to the culture media at the same time as the metabolic substrate to test direct inhibition (DI) or 1 hour prior to the addition of the metabolic substrate to test time-dependent inhibition (TDI).
Target sequence in this assay (P08684 2-503): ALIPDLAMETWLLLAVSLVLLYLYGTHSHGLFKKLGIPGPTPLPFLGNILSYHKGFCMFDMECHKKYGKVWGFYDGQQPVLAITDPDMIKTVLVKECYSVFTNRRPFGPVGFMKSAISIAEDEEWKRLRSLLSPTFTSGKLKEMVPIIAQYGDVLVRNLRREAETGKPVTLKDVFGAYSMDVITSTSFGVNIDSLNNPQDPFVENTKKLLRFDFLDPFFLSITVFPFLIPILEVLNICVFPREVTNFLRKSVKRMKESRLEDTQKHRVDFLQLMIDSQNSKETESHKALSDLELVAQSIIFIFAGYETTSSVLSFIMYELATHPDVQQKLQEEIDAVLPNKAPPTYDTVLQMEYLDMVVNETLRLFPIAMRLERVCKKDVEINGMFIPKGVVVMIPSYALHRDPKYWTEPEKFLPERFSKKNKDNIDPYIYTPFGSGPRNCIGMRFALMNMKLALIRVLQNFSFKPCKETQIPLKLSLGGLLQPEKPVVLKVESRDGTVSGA

CYP3A4 [2] = target: T1, CYP3A4; experiment: in vitro
Method: as §1
Fig 6G–6I show the plots to determine the rate of inactivation (kobs) for the three inhibitors as depicted in Fig 6A–6F.
Macrolides (0–100 μM/L) were preincubated at 37°C for 0–30 min, and the reaction was initiated by the addition of CYP3A-specific substrate for 30 min. (G—I) Apparent inactivation rate (kobs) was estimated graphically from the slope of the plot for the natural log enzyme activity remaining after preincubation against preincubation time and was corrected for any loss of activity in the absence of the inhibitor. kinact and Ki,app values were obtained from a double reciprocal plot of kobs against inhibitor concentration. Closed circles represent TC-HepG2 cells, and opened circles represent parental HepG2 cells. Each symbol represents the average of triplicate determinations.

CYP2D6 [3] = target: T2, CYP2D6 (Homo sapiens, UniProt P10635); experiment: cell-based
T2 sequence (P10635 whole entry): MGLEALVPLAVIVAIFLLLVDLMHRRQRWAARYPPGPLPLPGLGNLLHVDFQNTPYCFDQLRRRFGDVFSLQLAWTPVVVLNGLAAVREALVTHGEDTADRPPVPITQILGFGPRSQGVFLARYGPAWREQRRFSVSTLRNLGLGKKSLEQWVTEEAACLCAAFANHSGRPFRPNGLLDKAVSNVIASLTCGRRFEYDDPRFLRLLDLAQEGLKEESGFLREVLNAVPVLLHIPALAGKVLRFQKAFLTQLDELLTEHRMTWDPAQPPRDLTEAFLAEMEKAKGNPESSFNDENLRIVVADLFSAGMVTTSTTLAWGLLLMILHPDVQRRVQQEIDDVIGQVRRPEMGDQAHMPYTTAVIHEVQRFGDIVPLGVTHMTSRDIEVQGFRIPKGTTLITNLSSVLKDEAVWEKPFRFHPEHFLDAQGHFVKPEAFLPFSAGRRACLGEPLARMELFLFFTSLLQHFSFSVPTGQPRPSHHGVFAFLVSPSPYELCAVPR
Method: as §1, §2, §3, §4

CYP2D6 [4] = target: T2, CYP2D6; experiment: cell-based; format: in vitro ADME; set-up: endogenous in cells; host or cells: primary human hepatocytes; conditions: primary human hepatocytes; mean ± S.D. of triplicate
CYP2C9 = CYP2C9 (Homo sapiens, UniProt P11712); conditions: TC-HepG2 cells, Fig 5
CYP2C9, sequence (P11712 whole entry): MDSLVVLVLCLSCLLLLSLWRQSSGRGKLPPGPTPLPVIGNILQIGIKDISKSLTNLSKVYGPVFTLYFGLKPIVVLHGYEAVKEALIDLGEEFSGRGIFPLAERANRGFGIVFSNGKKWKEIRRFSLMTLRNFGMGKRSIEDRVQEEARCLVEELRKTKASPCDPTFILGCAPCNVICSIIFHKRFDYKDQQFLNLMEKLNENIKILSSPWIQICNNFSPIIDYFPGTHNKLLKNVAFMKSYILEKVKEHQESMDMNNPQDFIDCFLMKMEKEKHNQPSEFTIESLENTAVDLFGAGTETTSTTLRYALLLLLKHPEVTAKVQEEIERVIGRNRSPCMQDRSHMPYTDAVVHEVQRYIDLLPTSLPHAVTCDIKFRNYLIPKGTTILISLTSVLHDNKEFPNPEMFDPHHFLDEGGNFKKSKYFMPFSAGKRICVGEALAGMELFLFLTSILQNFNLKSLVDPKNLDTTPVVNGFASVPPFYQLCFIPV
Method: as §1, §2, §3, §4

CYP2C19 [5] = target: T3, CYP2C19 (Homo sapiens, UniProt P33261); experiment: cell-based
T3 sequence (P33261 whole entry): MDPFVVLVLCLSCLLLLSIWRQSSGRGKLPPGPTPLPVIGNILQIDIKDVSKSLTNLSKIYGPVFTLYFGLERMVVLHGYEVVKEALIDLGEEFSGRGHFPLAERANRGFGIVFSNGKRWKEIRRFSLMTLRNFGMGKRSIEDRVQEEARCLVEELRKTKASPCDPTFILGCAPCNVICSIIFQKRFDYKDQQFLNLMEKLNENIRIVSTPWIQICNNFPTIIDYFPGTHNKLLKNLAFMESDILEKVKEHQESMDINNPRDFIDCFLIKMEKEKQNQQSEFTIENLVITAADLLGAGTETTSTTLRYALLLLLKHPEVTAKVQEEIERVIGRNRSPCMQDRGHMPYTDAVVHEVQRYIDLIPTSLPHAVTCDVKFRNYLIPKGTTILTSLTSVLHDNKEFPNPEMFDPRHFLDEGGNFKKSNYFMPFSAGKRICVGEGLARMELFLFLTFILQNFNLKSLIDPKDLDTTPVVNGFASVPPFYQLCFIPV
Method: as §1, §2, §3, §4

CYP2C19 [6] = target: T3, CYP2C19; experiment: cell-based; format: in vitro ADME; set-up: endogenous in cells; host or cells: primary human hepatocytes; conditions: primary human hepatocytes; mean ± S.D. of triplicate

## CC[C@H]1OC(=O)[C@H](C)[C@@H](O[C@H]2C[C@@](C)(OC)[C@@H](O)[C@H](C)O2)[C@H](C)[C@@H](O[C@@H]2O[C@H](C)C[C@H](N(C)C)[C@H]2O)[C@](C)(OC)C[C@@H](C)C(=O)[C@H](C)[C@@H](O)[C@]1(C)O [Clarithromycin]
CYP3A4 [1]; TC-HepG2 cells, Fig 5
  inhibitory effect with 1 hour preincubation (TDI) compared with simultaneous addition of inhibitor and substrate (DI), CYP3A4: higher
CYP3A4 [1]; three TC-HepG2 clones (Fig 3C)
  inhibitory effect on CYP3A4 metabolic activity: concentration-dependent inhibitory effect
CYP3A4 [2]; 0-100 μM added 10, 20 or 30 min before substrate (Fig 6)
  suppression of the generation of metabolites of the luminescent CYP3A4 substrate: time- and concentration-dependent manner
CYP3A4 [2]; hepatocytes
  KI (inactivation): 16 ± 4.3 µM
CYP3A4 [2]; human
  KI (inactivation): 3.76 ± 0.42 µM

## CN(C/C=C/C#CC(C)(C)C)Cc1cccc2ccccc12 [Terbinafine]
CYP2D6 [3]
  IC50: 0.0021 ± 0.0002 µM
CYP2D6 [4]
  IC50: 0.0099 ± 0.0002 µM

## Fc1ccc([C@@H]2CCNC[C@H]2COc2ccc3c(c2)OCO3)cc1 [Paroxetine]
CYP2D6 [3]
  inhibitory effect with 1 hour preincubation (TDI) compared with simultaneous addition of inhibitor and substrate (DI), CYP2D6: higher

## O=C(O)COc1ccc(C(=O)c2cccs2)c(Cl)c1Cl [Tienilic acid]
CYP2C9
  inhibitory effect with 1 hour preincubation (TDI) compared with simultaneous addition of inhibitor and substrate (DI), CYP2C9: higher
CYP2C19 [5]
  IC50: 5.7 ± 1.7 µM
CYP2C19 [6]
  IC50: 0.55 ± 0.02 µM

## aflatoxin B1
TC-HepG2 cells
  IC50 in TC-HepG2 cells compared with HepG2 cells: lower
HepG2 cells
  toxicity in parental HepG2 cells lacking CYPs: neither compound was toxic

## COc1cc2c(c3oc4cccc(O)c4c(=O)c13)[C@@H]1C=CO[C@@H]1O2 [sterigmatocystin]
TC-HepG2 cells
  cell survival rate in TC-HepG2 cells compared with parental HepG2 cells: significantly lower
  survival of TC-HepG2 cells: concentration-dependent decrease
HepG2 cells
  toxicity in parental HepG2 cells lacking CYPs: neither compound was toxic

## C#C[C@]1(O)CC[C@H]2[C@@H]3CCc4cc(O)ccc4[C@H]3CC[C@@]21C [Ethinylestradiol]
CYP3A4 [1]; TC-HepG2 cells, Fig 5
  inhibitory effect with 1 hour preincubation (TDI) compared with simultaneous addition of inhibitor and substrate (DI), CYP3A4: higher

## CC[C@H]1OC(=O)[C@H](C)[C@@H](O[C@H]2C[C@@](C)(OC)[C@@H](O)[C@H](C)O2)[C@H](C)[C@@H](O[C@@H]2O[C@H](C)C[C@H](N(C)C)[C@H]2O)[C@](C)(O)C[C@@H](C)/C(=N\OCOCCOC)[C@H](C)[C@@H](O)[C@]1(C)O [Roxithromycin]
CYP3A4 [1]
  inhibitory effect with 1 hour preincubation (TDI) compared with simultaneous addition of inhibitor and substrate (DI), CYP3A4: higher
CYP3A4 [2]
  suppression of the generation of metabolites of the luminescent CYP3A4 substrate: time- and concentration-dependent manner
CYP3A4 [2]; hepatocytes
  KI (inactivation): 13.1 ± 4.7 µM
  kinact: 0.000161 s⁻¹
CYP3A4 [2]; human
  KI (inactivation): 4.6 ± 0.6 µM
  kinact: 0.000431 s⁻¹
